Measurements reported in ChEMBL document CHEMBL3045250 (Med Chem Res, 2005).

Legend:
[1] = molecular target: T1, 5-hydroxytryptamine receptor 6 (Homo sapiens, UniProt P50406); test: Displacement of [3H]LSD from Homo sapiens (human) 5-HT6 receptor expressed in Homo sapiens (human) HEK293 cells; type: cell-based
[2] = molecular target: T1, 5-hydroxytryptamine receptor 6; test: Binding affinity to 5-HT6 receptor (unknown origin)

T1 sequence (P50406 whole entry): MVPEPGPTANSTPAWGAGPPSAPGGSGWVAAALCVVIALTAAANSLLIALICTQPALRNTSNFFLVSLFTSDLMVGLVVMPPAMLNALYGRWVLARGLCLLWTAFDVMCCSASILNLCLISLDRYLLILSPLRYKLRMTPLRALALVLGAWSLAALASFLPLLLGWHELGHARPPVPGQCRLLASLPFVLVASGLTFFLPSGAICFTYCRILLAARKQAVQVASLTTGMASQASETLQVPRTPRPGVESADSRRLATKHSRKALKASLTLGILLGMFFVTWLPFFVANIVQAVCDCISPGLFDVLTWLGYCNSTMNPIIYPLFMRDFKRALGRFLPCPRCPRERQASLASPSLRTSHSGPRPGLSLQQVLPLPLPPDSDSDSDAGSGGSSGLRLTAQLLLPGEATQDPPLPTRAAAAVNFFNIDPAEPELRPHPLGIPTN

SMILES	Ki [1]	Ki [2]
NCCc1c[nH]c2ccncc12 [5-Azatryptamine]	64 nM	–
CN(C)CCc1c[nH]c2ccncc12	100 nM	–
NCCc1c(-c2ccccc2)[nH]c2ccncc12	2600 nM	–
CNc1cc(NS(=O)(=O)c2ccc(N)cc2)nc(NC)n1	–	58 nM
CN(C)CCc1cn(S(=O)(=O)c2ccccc2)c2ccncc12	84 nM	–
Cc1cn(S(=O)(=O)c2ccc(N)cc2)c2ccncc12	41 nM	–
CN(C)CCc1c(-c2ccccc2)[nH]c2ccncc12	270 nM	–
CCc1[nH]c2ccncc2c1CCN	4900 nM	–
CCc1[nH]c2ccncc2c1CCN(C)C	2900 nM	–
